Assay results taken from patent EP0358766A1, “METHOD OF STERILIZING PLANT ANTHERS” (VSESOJUZNY NAUCHNO-ISSLEDOVATELSKY INST. SELSKOKHOZYAISTV. …, priority 1988, dated 1989).

Columns and labels:
[1] = system: Sommerweizens Sorte Moskowskaya 35; assay: Field test of gametocidal activity, spring wheat Moskowskaya 35; type: in vivo, Weizen; conditions: for Kornzahl der Ähre bei freier Bestäubung / Kornzahl der Ähre im Isolator / Prozentsatz des Ansetzens von Samen bei freier Bestäubung: Moskowskaya 35, period V, 1% aqueous emulsion, 6 kg/ha in 600 l water; for Prozentsatz des Ansetzens von Samen bei freier Bestäubung: control = 100; for pest or weed control at 6000 g/ha: read-out: Prozentsatz der Sterilität
[2] = system: diploidem Roggen Kharkovskaya 55; assay: Field test of gametocidal activity, diploid rye Kharkovskaya 55; type: in vivo; conditions: for Kornzahl der Ähre bei freier Bestäubung / Kornzahl der Ähre im Isolator / Prozentsatz des Ansetzens von Samen bei freier Bestäubung: Kharkovskaya 55, period V, 1% aqueous emulsion, 6 kg/ha in 600 l water; for Prozentsatz des Ansetzens von Samen bei freier Bestäubung: control = 100; for pest or weed control at 6000 g/ha: read-out: Prozentsatz der Sterilität
Description: (§1) Die gametozide Aktivität der erfindungsgemäßen Sterilisationsmittel war in Feldversuchen in verschiedenen bodenklimatischen Zonen mit Teilstücken von 10 m^2 Größe in dreibis viermaliger Wiederholung festgestellt. Jedes Sterilisationsmittel wurde mindenstens 5 Jahre lang geprüft.
(§2) Die Entwicklung der Perioden der Organogenese wird zytologisch überwacht. Die Behandlung von Pflanzen mit dem Sterilisationsmittel erfolgt am Anfang der fünften Periode der Organogenese nach Kupermann.
(§3) Mit dem Ährenschieben verwirklicht man die Isolierung von Hauptähren und anderen Stockwerken in Pergametbeuteln. Bei Weizen und Tritikale werden Einzelisolatoren benutzt. Bei Roggen schließt man je 1 Ähre von […] verschiedenen nebeneinander befindlichen Pflanzen unter einen gemeinsamen Isolator ein. Bei Hirse wird jede Rispe getrennt isoliert. Der Sterilitätsprozentsatz (X) für Weizen, Roggen, Tritikale und Hirse wird nach der Formel [formula] ermittelt.
(§4) Die Kornzahl in nicht isolierten Ähren von Kontrollpflanzen wird bedingt für 100 % Ansetzen bei freier Bestäubung angenommen.
(§5) Um zuverlässige Angaben zu erhalten, verwendet man 20 bis 25 Isolatoren je Wiederholung für Weizen und Tritikale, 10 bis 15 Isolatoren jeder Wiederholung für Roggen und Hirse.
Pflanzen von diploidem Roggen Kharkovskaya 55 werden in der V. Periode der Organogenese mit einer l%igen wäßrigen Emulsion von 1,1,3-Tribrompropan, 1,2,3-Tribrompropan, 1,2-Dibrompropan, 1,1,3-Tribrom-3-chlorpropan, 1,2--Dibrom-3-chlorpropan, 1,1,1,3-Tetrabromheptan, 1,1,3-Tribromheptan bzw. 1,2-Dibromheptan behandelt. Die Emulsion enthält 0,5 Masse% C12-C14-Kalziumalkylbenzolsulfonat und 0,01 Masse% Dimethylformamid als Adjuvans. Der Verbrauch an Präparat beträgt 6 kg/ha bei 600 1 Wasserdurchsatz. Die Prüfergebnisse sind in der Tabelle 13 angegeben. Die gleichen Ergebnisse sind bei der Behandlung von diploidem Roggen Kharkovskaya 55 in der VI. Periode der Organogenese erhalten.

[3] = system: Hirse Sorte Mironovskoye 94; assay: Field test of gametocidal activity, millet Mironovskoye 94; type: in vivo; conditions: for Kornzahl der Rispe bei freier Bestäubung / Kornzahl der Rispe im Isolator / Prozentsatz des Ansetzens von Samen bei freier Bestäubung: Mironovskoye 94, period V, 1% aqueous emulsion, 6 kg/ha in 600 l water; for Prozentsatz des Ansetzens von Samen bei freier Bestäubung: control = 100; for pest or weed control at 6000 g/ha: read-out: Prozentsatz der Sterilität
Description: as §1, §2, §3, §4, §5
Pflanzen der Hirse Sorte Mironovskoye 94 werden in der V.Periode der Organogenese mit einer 1%igen wäßrigen Emulsion von 1,1,3-Tribrompropan, 1,2,3-Tribrompropan, 1,2-Dibrompropan, 1,2-Dibrom-3-chlorpropan, 1,3-Dibrompropan, 1,1,1,3-Tetrabromheptan, 1,1,3-Tribromheptan, 1,2-Dibromheptan behandelt. Die Emulsion enthält 0,5 Masse% C12-C14--Kalziumalkylbenzolaulfonat und 0,01 Masse% Dimethylsulfoxid als Adjuvans. Der Verbrauch an Präparat beträgt 6 kg/ha bei 600 1 Wasserdurchsatz. Die Prüfergebnisse sind in der Tabelle 15 angegeben. Die gleichen Ergebnisse sind bei der Behandlung der Hirse Sorte Mironovskoye 94 in der VI. Periode der Organogenese erhalten.

[4] = system: diploidem Roggen Chulpan; assay: Field test of gametocidal activity, diploid rye Chulpan; type: in vivo; conditions: for Kornzahl der Ähre bei freier Bestäubung / Kornzahl der Ähre im Isolator / Prozentsatz des Ansetzens von Samen bei freier Bestäubung: Chulpan, period V, 1% aqueous emulsion, 10 kg/ha; for Prozentsatz des Ansetzens von Samen bei freier Bestäubung: control = 100; for pest or weed control at 10000 g/ha: read-out: Prozentsatz der Sterilität
[5] = system: Winterweizens Sorte Mironowskaya 808; assay: Field test of gametocidal activity (anther sterilisation), winter wheat Mironowskaya 808; type: in vivo, Weizen; conditions: for Kornzahl der Ähre bei freier Bestäubung / Kornzahl der Ähre im Isolator / Prozentsatz des Ansetzens von Samen bei freier Bestäubung: Mironowskaya 808, period V of organogenesis, 1% aqueous emulsion, 10 kg/ha; for Prozentsatz des Ansetzens von Samen bei freier Bestäubung: control = 100; for pest or weed control at 1 %, 10000 g/ha: read-out: Prozentsatz der Sterilität %

SMILES | Kornzahl der Ähre bei freier Bestäubung [1] | Kornzahl der Ähre im Isolator [1] | Prozentsatz des Ansetzens von Samen bei freier Bestäubung [1] | pest or weed control at 6000 g/ha [1] [%] | Kornzahl der Ähre bei freier Bestäubung [2] | Kornzahl der Ähre im Isolator [2] | Prozentsatz des Ansetzens von Samen bei freier Bestäubung [2] | pest or weed control at 6000 g/ha [2] [%] | Kornzahl der Rispe bei freier Bestäubung [3] | Kornzahl der Rispe im Isolator [3] | Prozentsatz des Ansetzens von Samen bei freier Bestäubung [3] | pest or weed control at 6000 g/ha [3] [%] | Kornzahl der Ähre bei freier Bestäubung [4] | Kornzahl der Ähre im Isolator [4] | Prozentsatz des Ansetzens von Samen bei freier Bestäubung [4] | pest or weed control at 10000 g/ha [4] [%] | Kornzahl der Ähre bei freier Bestäubung [5] | Kornzahl der Ähre im Isolator [5] | Prozentsatz des Ansetzens von Samen bei freier Bestäubung [5] | pest or weed control at 1 %, 10000 g/ha [5] [%]
ClCC(Br)CBr (stereo not shown) [Beispiel 7, 1,2-Dibrom-3-chlorpropan] | 33,8 | 0,0 | 88,5% | 100 | 39,5 | 0,0 | 87,6% | 100 | 202,6 | 0,0 | 82,8% | 100 | 42,5 | 0,0 | 84,8% | 100 | 33,8 | 0,0 | 90,6% | 100
CCCCC(Br)CC(Br)(Br)Br (stereo not shown) [Beispiel 9, 1,1,1,3-Tetrabromheptan] | 35,8 | 0,1 | 93,7% | 99.9 | 37,1 | 0,0 | 100,0% | 100 | 200,7 | 0,0 | 81,7% | 100 | 48,9 | 0,2 | 97,6% | 99.6 | 31,4 | 0,2 | 75,5% | 99.5
